Measured values from patent US7655678B2, “Pharmaceutical composition for the management of tumors” (Council of Scientfic & Industrial Research, priority 2004, dated 2010).

Legend:
skin tumor formation = conditions: topical application; cited from earlier work
[1] = system: DMBA induced mouse skin tumor development; assay: chronic animal bioassay: DMBA induced mouse skin tumor development, topical treatment; type: in vivo, female Swiss albino mice; conditions: DMBA 200 ug/kg; Cag 240 mg/kg, NA 240 mg/kg, BA 8 mmoles/kg body wt; topical twice weekly; terminated after 30 weeks; 15 animals each group
Description: We have used female Swiss albino mice from the inbred colony of Industrial Toxicology Research Center, Lucknow, India. The treatment schedule was followed as described earlier (22). Animals were shaved on the back (2×2 cm) in the interscapular region using surgical clippers. Only the animals in the resting phase of hair growth were selected for the study. For this chronic animal bioassay, we have taken 135 animals and divided them into 9 groups, consisting of 15 animals each. Group 1 served as negative control group where animals received acetone/DMSO only. For the entire study we have used 7,12-Dimethylbenz (a) anthracene (DMBA) as a skin carcinogen. DMBA was used at the dose of 200 μg/kg body wt in 0.1 ml acetone. In group 3, animals were treated with DMBA followed by concomitant application of Calcium D-glucarate (240 mg/kg body wt in 0.1 ml of DMSO). […] In group 5, animals were treated with DMBA followed by concomitant application of Butyric acid (8 mmoles in 0.1 ml of acetone). […] In group 7, animals were treated with DMBA followed by a concomitant application of Calcium D-glucarate, Butyric acid. […] All the treatments were applied topically. […] Animals were inspected regularly for tumor incidence, baldness, acne, poor health, sickness etc. Experiment was terminated after 30 weeks.
Experimental Design (15 Animals Each Group)

skin papilloma formation = conditions: topical, cited from earlier work; for rate of survival: SENCAR mice; for skin papilloma formation: from the ninth week of promotion
mouse skin papillomas = conditions: at higher concentrations; cited from earlier work

Compound	Cumulative no. of tumor [1]	No. of tumo bearing animal/Initial No. of animals [1]	Onset of firs tumor [in weeks] [1]	further results
CC(C)=CCOc1ccc2ccc(=O)oc2c1 [7-Isopentenyloxucoumarin]				skin tumor formation (skin tumor formation): suppressed
O=C([O-])[C@@H](O)[C@@H](O)[C@H](O)[C@@H](O)C(=O)[O-].[Ca+2] [DMBA + CaG, Calcium D-glucarate]	12	10/15	18 weeks	
NC(=O)c1cccnc1 [DMBA + NA, Nicotinamide]	09	08/15	21 weeks	100% tumorigenesis [in weeks] [1]: 0 weeks
Cc1c2ccccc2c(C)c2c1ccc1ccccc12 [DMBA, 7,12-Dimethylbenz (a) anthracene]	62	15/15	15 weeks	100% tumorigenesis [in weeks] [1]: 28 weeks
C=CCSSCC=C [diallyl disulfide]				rate of survival (skin papilloma formation): significantly increased; skin papilloma formation (skin papilloma formation): significantly inhibited
C=CCSCC=C [diallyl sulfide]				rate of survival (skin papilloma formation): significantly increased; skin papilloma formation (skin papilloma formation): significantly inhibited
CC1=C(/C=C/C(C)=C/C=C/C(C)=C/C(=O)O)C(C)(C)CCC1 [retinoic acid]				cytotoxicity (mouse skin papillomas): cytotoxic
